A short description of data set [1]: Transfer of coumarins from blood to CSF in sheep (third ventricle CSF, spectrophotometric). The note with it: for Mean (μg/mL) Value with Centrifugation (average coumarin concentration in CSF) / Value (μg/mL) Without Centrifugation (average coumarin concentration in CSF): iv infusion 50 mg/500 mL over 15 min; for Mean (μg/mL) Value with Centrifugation (average coumarin concentration in CSF): CSF centrifuged; for Value (μg/mL) Without Centrifugation (average coumarin concentration in CSF): CSF not centrifuged; for change in CSF concentration level after centrifugation: paired data before/after centrifugation; for transfer to the CSF (coumarin concentration level higher than 0) / crossing of the BBB/BCSFB (in words) / metabolism after crossing the BBB/BCSFB (in words): sheep; for transfer to the CSF (coumarin concentration level higher than 0): after centrifugation of CSF; for crossing of the BBB/BCSFB (in words): iv administration; for metabolism after crossing the BBB/BCSFB (in words): from regression and absorbance curves.

Data set [2] is described as follows: Mass spectrometric determination of coumarin 2 in sheep CSF (ESI, positive mode). The class given is in vivo. The note with it: sheep CSF after administration of compound 2, sodiated ion. The method, then: All reagents and solvents were purchased from Sigma-Aldrich (Saint Louis, MI, USA). All solvents were of analytical grade and were used without prior distillation. Merck silica gel 60 F254 plates were used for TLC (Thin-Layer Chromatography) analysis. The crude reaction mixtures were purified using column chromatography on Merck silica gel 60/230–400 mesh (Rahway, NJ, USA), with an appropriate mixture of hexanes and ethyl acetate as eluent. Nuclear magnetic resonance (NMR) spectra were performed on a Varian apparatus (Varian, Saint Louis, MI, USA) (400 MHz) and (500 MHz); the mass spectrometer was from Waters Company, Milford, MA, USA. Chemical shifts are expressed in ppm and the coupling constant (J) is expressed in Hz using TMS as an internal standard. […] Cerebrospinal fluid (CSF) samples were analyzed for the presence of the investigated coumarin derivative 2 using a SCIEX API 3000 triple quadrupole mass spectrometer (Science, Engineering, and Technology (SCIEX, Concord, ON, Canada)) equipped with an electrospray ionization (ESI) source operated in positive ion mode.
Sheep CSF samples were collected and stored at −80 °C until further analysis. […] The samples were analyzed using a SCIEX API 3000 triple quadrupole mass spectrometer equipped with an electrospray ionization (ESI) source operating in positive ion mode. […]

Data set [3] in a line: Solubility in water (observation). The class given is physicochemical.
The conditions of data set [4]: in vivo; for crossing of the BBB/BCSFB (in words): iv.
Data set [5] in a line: MTT cytotoxicity assay. As to conditions: mouse; for viability at 24 h, 0.5 µg/mL: cell viability, BALB/c-3T3, 0.5 µg/mL, MTT.
Method: (§1) The cytotoxic effects of the tested peptidomimetics 1–8 on BALB/c-3T3 mouse fibroblast cells and gonadotroph cell lines such αT3-1 came from the ATCC collection.
(§2) All cells were cultured in Petri dishes in DMEM in a 5% CO2 incubator. Balb/c3T3 cells required supplementation with 10% fetal bovine serum (PAA Laboratories, cat. no. A15-751), whereas αT3-1 cells were maintained in monolayer cultures in DMEM supplemented with 10% fetal bovine serum, 100 U/ml penicillin G, and 0.1 mg/mL streptomycin (Invitrogen, China) in humidified 5% CO2, 95% air, at 37 °C. The cells were passed at ~95% confluence using a trypsin-EDTA solution (0.05% trypsin, 0.5 mM EDTA). Cells were kept in phenol red-free medium containing charcoal-treated fetal bovine serum for 4 days before the experiments. All cell lines were periodically treated with plasmacin (Invivogen #ant-mpt-1, 10 μg/mL for 2 weeks) and examined for mycoplasma contamination by DAPI staining or PCR as described in [72, 73, 74, 75].
(§3) Both cell lines were determined using the MTT assay after 24 h of incubation at five concentrations. The MTT test is based on the ability of mitochondrial dehydrogenase enzymes to convert an orange, water-soluble tetrazolium salt (3-(4,5-dimethylthiazol-2-yl)-2,5-diphenyltetrazolium bromide) into an insoluble formazan, which is a dark blue product of the above reaction. After the formazan crystals were placed in DMSO or isopropanol, a colored solution formed, and the intensity was measured spectrophotometrically within the wavelength range of 492–570 nm. The amount of colored reduced MTT was proportional to the oxidative activity of the cell mitochondria and, under strictly defined experimental conditions, to the number of metabolically active (living) cells in the population. The MTT test can also be used to determine cell viability in populations of cells that no longer divide, but are metabolically active.
Data set [6] is described as follows: MTT cytotoxicity assay. As to conditions: mouse, αT3-1 pituitary gonadotrope cells; for viability at 24 h, 0.5 µg/mL: cell viability, αT3-1, 0.5 µg/mL, MTT.
Method: as §1, §2, §3
Data set [7] in a line: in vitro. The note with it: mouse, cell viability, BALB/c-3T3, 0.5 µg/mL, MTT.
Method: as §1, §2, §3
Data set [8] can be described thus: in vitro. As to conditions: mouse, cell viability, αT3-1, 0.5 µg/mL, MTT.
Method: as §1, §2, §3
[9] abbreviates: BALB/c-3T3 mouse embryonic fibroblast cells.

≈ marks a conversion by molar mass, not a printed value. Entries after “also recorded” stand apart in the source; their conditions may differ. Read-outs that look alike come from different tables or passages of the source. Bounds are passed on as bounds.

With `COc1ccc(CNC(=O)C(c2ccc(OC)cc2)N(C(=O)CCCC(=O)O)c2ccc3c(C)cc(=O)oc3c2)cc1` (centres unmarked) [Compound 1], in data set [1] (sheep CSF), the “Mean (μg/mL) Value with Centrifugation (average coumarin concentration in CSF)” value is given as 2 (+/−5) μg/mL and the “Value (μg/mL) Without Centrifugation (average coumarin concentration in CSF)” value (“Value (μg/mL) Without Centrifugation” below) is recorded as 10 (+/−5) μg/mL.
In the case of `CCOC(=O)CNC(=O)C(Nc1ccc2c(C(F)(F)F)cc(=O)oc2c1)c1ccccc1` (centres unmarked) [Compound 2], in data set [2], the “detection in CSF by ESI-MS” value is reported as “presence of the compound as its sodiated ion”. Also, the “solubility in water (in words)” value in data set [3] is “does not dissolve in water”. In addition, in data set [4], the “crossing of the BBB/BCSFB (in words)” value is on record as “penetrated the blood–brain barrier to the greatest extent”. In addition, the “protein binding (in words)” value in data set [4] (sheep) was “binds well to proteins”. In “MTT cytotoxicity assay [5]”, the IC50 at 24 h came out at 6.58 µg/mL (≈ 14.7 µM). The half-maximal inhibitory concentration (IC50) at 24 h in the data set “MTT cytotoxicity assay [6]” stood at 6.58 µg/mL (≈ 14.7 µM). In addition, in data set [1] (sheep CSF), the “Value (μg/mL) Without Centrifugation” value is on record as 350 (+/−5) μg/mL and the “change in CSF concentration level after centrifugation” value is on record as “significant decrease”. In data set [1] (sheep CSF, iv infusion, after centrifugation), the “average coumarin concentration in CSF after centrifugation” value was 118.32 µg/mL. The “average coumarin concentration in CSF before centrifugation” value in data set [1] (sheep CSF, iv infusion, before centrifugation) was 355.85 µg/mL. In data set [1], the “transfer to the CSF (coumarin concentration level higher than 0)” value (“transfer to the CSF” for short) is “statistically confirmed”.
As to `COc1ccc(CNC(=O)C(c2ccccc2)N(C(=O)CCCC(=O)O)c2ccc3c(C)cc(=O)oc3c2)cc1` (centres unmarked) [Compound 3], the viability at 24 h, 0.5 µg/mL in “MTT cytotoxicity assay [5]” (setting [9]) and in the data set “MTT cytotoxicity assay [6]” was > 96% throughout. Besides, in data set [1] (sheep CSF), the “Value (μg/mL) Without Centrifugation” value is 2.5 (+/−5) μg/mL. Moreover, the “crossing of the BBB/BCSFB (in words)” value in data set [1] is on record as “crossed the BBB/BCSFB”. For the same compound, in data set [1], the “metabolism after crossing the BBB/BCSFB (in words)” value is listed as “partially metabolized”.
For the compound `CCOC(=O)CNC(=O)C(Nc1ccc2c(C(F)(F)F)cc(=O)oc2c1)c1ccc(OC)cc1` (centres unmarked) [Compound 4], the viability at 24 h, 0.5 µg/mL in “in vitro [7]” and in “in vitro [8]” was > 96% throughout.
`CCOC(=O)CNC(=O)C(c1ccc(OC)cc1)N(C(=O)Cc1ccccc1)c1ccc2c(C)cc(=O)oc2c1` (centres unmarked) [Compound 5]: the viability at 24 h, 0.5 µg/mL in the data set “MTT cytotoxicity assay [5]” (setting [9]) is > 96%. In the data set “MTT cytotoxicity assay [6]”, the viability at 24 h, 0.5 µg/mL is > 96%. Besides, the “Value (μg/mL) Without Centrifugation” value in data set [1] (sheep CSF) was 5 (+/−5) μg/mL. Besides, in data set [1], the “crossing of the BBB/BCSFB (in words)” value is reported as “crossed the BBB/BCSFB” and the “metabolism after crossing the BBB/BCSFB (in words)” value is “partially metabolized”.
`Cc1cc(=O)oc2cc(/N=C/c3ccccc3)ccc12` [Compound 6]: the viability at 24 h, 0.5 µg/mL in the data set “MTT cytotoxicity assay [5]” (setting [9]) and in the data set “MTT cytotoxicity assay [6]” was > 96% throughout. In data set [1] (sheep CSF), the “Value (μg/mL) Without Centrifugation” value is listed as 8 (+/−5) μg/mL.
As to `CCOC(=O)CNC(=O)C(Nc1ccc2c(C(F)(F)F)cc(=O)oc2c1)c1ccc(Br)cc1` (centres unmarked) [Compound 7], in data set [4], the “metabolism after crossing the BBB/BCSFB (in words)” value is listed as “partially metabolized”, the “transfer to the CSF” value is listed as “statistically confirmed” and the “crossing of the BBB/BCSFB (in words)” value was “crossed the BBB/BCSFB”.
For `COc1ccc(CNC(=O)C(c2ccc(Br)cc2)N(C(=O)Cc2ccccc2)c2ccc3c(C)cc(=O)oc3c2)cc1` (centres unmarked) [Compound 8], the IC50 at 24 h in “MTT cytotoxicity assay [5]” (setting [9]) worked out at 1.71 µg/mL (≈ 2.73 µM). The compound further registered an IC50 at 24 h in the data set “MTT cytotoxicity assay [6]” of 1.71 µg/mL (≈ 2.73 µM). In addition, in data set [1] (sheep CSF), the “Mean (μg/mL) Value with Centrifugation (average coumarin concentration in CSF)” value is given as 20 (+/−5) μg/mL, the “Value (μg/mL) Without Centrifugation” value is given as 30 (+/−5) μg/mL and the “change in CSF concentration level after centrifugation” value is “significant decrease”. In data set [1], the “transfer to the CSF” value is “statistically confirmed” and the “crossing of the BBB/BCSFB (in words)” value is “penetrated the blood–brain barrier to the greatest extent; also recorded: capable of crossing the blood–brain barrier”.

These data come from paper PMC12525028, “Blood–Brain Barrier Penetration of Novel 4-Trifluoromethyl-Coumarin Hybrids with Antibacterial Properties as Potential Brain Therapeutics in the Context of Spatially Diverse Healthcare Systems” (International Journal of Molecular Sciences, 2025).
